Measurements: ChEMBL document CHEMBL1141511, “4,4-Dimethyl-1,2,3,4-tetrahydroquinoline-based PPARalpha/gamma agonists. Part I: synthesis and pharmacological evaluation” (Bioorg Med Chem Lett, 2008)
Activity calls are given as the source filed them. The rule behind the calls is not given here.

Columns and labels:
[1] = molecular target: T1, Peroxisome proliferator-activated receptor alpha (Homo sapiens) (UniProt Q07869); test: (§1) Agonist activity at human PPARalpha by GAL4 transactivation assay; type: functional
T1 sequence (whole entry): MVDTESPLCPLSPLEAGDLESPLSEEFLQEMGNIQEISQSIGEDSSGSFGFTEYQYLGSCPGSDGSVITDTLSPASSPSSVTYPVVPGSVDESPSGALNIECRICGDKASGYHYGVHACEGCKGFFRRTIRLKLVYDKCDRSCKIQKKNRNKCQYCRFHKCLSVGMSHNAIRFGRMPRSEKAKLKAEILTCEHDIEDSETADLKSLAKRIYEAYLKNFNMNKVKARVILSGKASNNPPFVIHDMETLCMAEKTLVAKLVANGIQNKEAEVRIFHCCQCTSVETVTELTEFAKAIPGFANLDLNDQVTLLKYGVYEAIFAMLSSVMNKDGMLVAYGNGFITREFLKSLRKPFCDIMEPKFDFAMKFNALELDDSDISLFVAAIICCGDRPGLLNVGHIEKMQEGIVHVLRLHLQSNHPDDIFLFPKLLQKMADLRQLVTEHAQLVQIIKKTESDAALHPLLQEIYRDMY

[2] = molecular target: T2, Peroxisome proliferator-activated receptor gamma (Homo sapiens, UniProt P37231)
T2 sequence (P37231 whole entry): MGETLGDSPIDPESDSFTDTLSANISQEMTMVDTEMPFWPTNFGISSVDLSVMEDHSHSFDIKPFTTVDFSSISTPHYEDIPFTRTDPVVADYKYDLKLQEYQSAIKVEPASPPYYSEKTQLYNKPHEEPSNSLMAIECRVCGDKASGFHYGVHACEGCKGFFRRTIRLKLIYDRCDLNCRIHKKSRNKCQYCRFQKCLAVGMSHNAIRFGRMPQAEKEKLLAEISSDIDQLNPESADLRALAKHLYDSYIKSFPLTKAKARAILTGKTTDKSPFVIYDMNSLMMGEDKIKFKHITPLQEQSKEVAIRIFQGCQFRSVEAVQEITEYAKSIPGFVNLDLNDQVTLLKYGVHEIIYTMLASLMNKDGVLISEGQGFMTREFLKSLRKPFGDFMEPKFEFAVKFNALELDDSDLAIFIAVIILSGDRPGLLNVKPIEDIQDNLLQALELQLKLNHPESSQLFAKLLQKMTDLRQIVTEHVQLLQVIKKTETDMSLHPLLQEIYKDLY

[3] = molecular target: T3, Peroxisome proliferator-activated receptor alpha (Homo sapiens, UniProt Q07869); test: as §1; type: functional
T3 sequence (Q07869 whole entry): T1 sequence (whole entry)

Row | Compound | Activity [1] | Ki [2] [nM] | EC50 [3] [nM]
1 | COC(=O)C(Cc1ccc(OCCN2CCC(C)(C)c3cc(C(=O)c4ccccc4)ccc32)cc1)C(=O)OC | inactive | 10000 | –
2 | CCO[C@@H](Cc1ccc(OCCc2ccc(OS(C)(=O)=O)cc2)cc1)C(=O)O [TESAGLITAZAR] | – | 18 | 414
3 | COC(=O)C(Cc1ccc(OCCN2CCC(C)(C)c3cc(/C(=N\O)c4ccccc4)ccc32)cc1)C(=O)OC | inactive | 10000 | –
4 | CCOC(=O)C(Cc1ccc(OCCN2CCC(C)(C)c3cc(/C(=N\O)c4ccccc4)ccc32)cc1)OCC (stereo not drawn) | – | 618 | 189
